# Columns and labels:
# [1] = target: Interstitial collagenase (Homo sapiens) (UniProt P03956); experiment: Inhibition of Peptidase, Matrix Metalloproteinase-1 (MMP-1) at 10 µM in the Eurofins-Panlabs enzyme assay (Eurofins_assay_114110); conditions: Compound concentration 10.0 uM
# [2] = target: T1, Muscarinic acetylcholine receptor M5 (Homo sapiens) (UniProt P08912); experiment: Inhibition of Muscarinic M5 at 10 µM in the Eurofins-Panlabs radioligand binding assay (Eurofins_assay_253010); design: ligand concentration 0.8 nM; conditions: Compound concentration 10.0 uM
# T1 sequence (whole entry): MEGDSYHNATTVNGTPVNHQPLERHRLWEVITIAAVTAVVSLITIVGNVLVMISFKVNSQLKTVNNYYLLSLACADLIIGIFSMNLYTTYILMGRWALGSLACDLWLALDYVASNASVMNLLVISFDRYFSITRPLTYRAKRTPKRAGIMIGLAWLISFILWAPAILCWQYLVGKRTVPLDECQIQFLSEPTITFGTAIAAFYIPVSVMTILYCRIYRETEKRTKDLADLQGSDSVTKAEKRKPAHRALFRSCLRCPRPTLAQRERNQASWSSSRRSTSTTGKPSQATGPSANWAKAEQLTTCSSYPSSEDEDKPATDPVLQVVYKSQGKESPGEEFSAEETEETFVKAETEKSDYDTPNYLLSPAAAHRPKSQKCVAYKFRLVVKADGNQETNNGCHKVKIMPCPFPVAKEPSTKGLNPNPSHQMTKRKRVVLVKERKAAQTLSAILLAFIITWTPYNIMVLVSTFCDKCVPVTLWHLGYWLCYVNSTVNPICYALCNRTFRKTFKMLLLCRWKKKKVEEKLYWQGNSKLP
# [3] = target: 5-hydroxytryptamine receptor 4 (Homo sapiens) (UniProt Q13639); experiment: Inhibition of Serotonin (5-Hydroxytryptamine) 5-HT4 at 10 µM in the Eurofins-Panlabs radioligand binding assay (Eurofins_assay_272000); conditions: Cavia porcellus; Compound concentration 10.0 uM
# Caspase-7 (Homo sapiens) = Caspase-7 (Homo sapiens) (UniProt P55210); experiment: Peptidase, CASP7 (Caspase 7) Eurofins-Panlabs enzyme assay; conditions: Compound concentration 10.0 uM
# [4] = target: 5-hydroxytryptamine receptor 6 (Homo sapiens) (UniProt P50406); experiment: Inhibition of Serotonin (5-Hydroxytryptamine) 5-HT6 at 10 µM in the Eurofins-Panlabs radioligand binding assay (Eurofins_assay_272200)
# Rattus norvegicus = organism: Rattus norvegicus; experiment: Adrenergic α1, Non-selective Eurofins-Panlabs radioligand binding assay; assay type: protein assay; conditions: Compound concentration 10.0 uM
# [5] = target: Phosphodiesterase PDE1 (Bos taurus) (UniProt Q01061+P14100+A0A3Q1MCV4); experiment: (§1) Phosphodiesterase PDE1 Eurofins-Panlabs enzyme assay; assay type: protein assay; design: substrate with concentration [3H] cAMP + cAMP, incubation time 20 min, incubation temperature 25 °C
# Phosphodiesterase PDE1 = Phosphodiesterase PDE1 (Bos taurus, UniProt Q01061+P14100+A0A3Q1MCV4); experiment: as §1; assay type: protein assay; design: substrate with concentration [3H] cAMP + cAMP, incubation time 20 min, incubation temperature 25 °C
# [6] = target: Mu-type opioid receptor (Homo sapiens) (UniProt P35372); conditions: Compound concentration 10.0 uM
# [7] = target: Mitogen-activated protein kinase 14 (Homo sapiens, UniProt Q16539); experiment: NanoBRET (SGC Frankfurt) (MAPK14)
# [8] = target: Sodium-dependent dopamine transporter (Homo sapiens, UniProt Q01959); experiment: Inhibition of Transporter, Dopamine (DAT) at compound concentration of 10.0 uM in the Eurofins-Panlabs radioligand binding assay (Eurofins_assay_220320); design: ligand concentration 0.15 nM, non-specific ligand with concentration 10 uM Nomifensine, incubation time 3 h, incubation temperature 4 C
# [9] = target: Protein kinase C iota type (Homo sapiens) (UniProt P41743); conditions: Compound concentration 1000.0 nM
# [10] = target: 5-hydroxytryptamine receptor 1A (Homo sapiens, UniProt P08908); experiment: Inhibition of Serotonin (5-Hydroxytryptamine) 5-HT1A at compound concentration of 10.0 uM in the Eurofins-Panlabs radioligand binding assay (Eurofins_assay_271110); design: ligand concentration 1.5 nM, non-specific ligand with concentration 10 uM Metergoline, incubation time 60 min, incubation temperature 25 C
# Homo sapiens [11] = organism: Homo sapiens; experiment: Inhibition of Nicotinic Acetylcholine at compound concentration of 10.0 uM in the Eurofins-Panlabs radioligand binding assay (Eurofins_assay_258590); assay type: protein-complex assay; conditions: Compound concentration 10.0 uM
# [12] = target: Prostaglandin D2 receptor (Homo sapiens) (UniProt Q13258); experiment: Prostanoid DP Eurofins-Panlabs radioligand binding assay; conditions: Compound concentration 10.0 uM
# [13] = target: T2, Alpha-2B adrenergic receptor (Homo sapiens) (UniProt P18089); conditions: Compound concentration 10.0 uM
# T2 sequence (whole entry): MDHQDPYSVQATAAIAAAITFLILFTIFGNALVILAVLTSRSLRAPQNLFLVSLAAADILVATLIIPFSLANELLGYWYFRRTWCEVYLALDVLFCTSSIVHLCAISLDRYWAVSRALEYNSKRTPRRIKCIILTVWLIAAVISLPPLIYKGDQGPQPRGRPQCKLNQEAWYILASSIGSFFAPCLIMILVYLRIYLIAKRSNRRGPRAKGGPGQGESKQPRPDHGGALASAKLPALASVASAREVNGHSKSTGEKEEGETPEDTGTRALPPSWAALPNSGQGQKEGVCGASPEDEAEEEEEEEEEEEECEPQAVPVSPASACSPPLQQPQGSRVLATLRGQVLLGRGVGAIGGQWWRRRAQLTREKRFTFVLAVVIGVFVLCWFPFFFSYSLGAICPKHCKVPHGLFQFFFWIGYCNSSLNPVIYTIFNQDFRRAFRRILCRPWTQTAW
# [14] = target: Prostaglandin E2 receptor EP4 subtype (Homo sapiens) (UniProt P35408); experiment: Prostanoid EP4 Eurofins-Panlabs radioligand binding assay; design: ligand concentration 0.5 nM; conditions: Compound concentration 10.0 uM
# [15] = target: Neuromedin-K receptor (Homo sapiens) (UniProt P29371); experiment: Tachykinin NK3 Eurofins-Panlabs radioligand binding assay; design: ligand concentration 0.8 nM; conditions: Compound concentration 10.0 uM
# Homo sapiens [16] = organism: Homo sapiens; experiment: (§2) Cholecystokinin CCK2 (CCKB) Eurofins-Panlabs radioligand binding assay; design: ligand concentration 0.072 nM, non-specific ligand with concentration 1 µM Sincalide, incubation time 3 h, incubation temperature 25 °C
# [17] = as §2; design: species or system Homo sapiens; ligand concentration 0.072 nM, non-specific ligand with concentration 1 µM Sincalide, incubation time 3 h, incubation temperature 25 °C
# Homo sapiens [18] = organism: Homo sapiens; experiment: (§3) Inhibition of Phosphodiesterase PDE4 at compound concentration of 10.0 uM in the Eurofins-Panlabs enzyme assay (Eurofins_assay_154000); assay type: protein assay; design: substrate with concentration 1.01 uM [3 H]cAMP + cAMP, incubation time 20 min, incubation temperature 25 C
# [19] = as §3; assay type: protein assay, Homo sapiens; design: substrate with concentration 1.01 uM [3 H]cAMP + cAMP, incubation time 20 min, incubation temperature 25 C
# Homo sapiens [20] = organism: Homo sapiens
# [21] = target: Glutamate receptor ionotropic, kainate (Rattus norvegicus) (UniProt P22756+Q01812+P42260+P42264+Q63273); experiment: Inhibition of Glutamate, Kainate at 10 µM in the Eurofins-Panlabs radioligand binding assay (Eurofins_assay_232700); conditions: Compound concentration 10.0 uM
# Bos taurus = organism: Bos taurus; experiment: (§4) Protein Serine/Threonine Kinase, PKA, Non-Selective Eurofins-Panlabs enzyme assay; assay type: protein-complex assay; design: substrate with concentration 370 µg/mL Histone Type III-S, incubation time 15 min, incubation temperature 25 °C
# [22] = as §4; assay type: protein-complex assay, Bos taurus; design: substrate with concentration 370 µg/mL Histone Type III-S, incubation time 15 min, incubation temperature 25 °C
# [23] = Compound concentration 100.0 uM
# Sodium-dependent dopamine transporter, sequence (Q01959 whole entry): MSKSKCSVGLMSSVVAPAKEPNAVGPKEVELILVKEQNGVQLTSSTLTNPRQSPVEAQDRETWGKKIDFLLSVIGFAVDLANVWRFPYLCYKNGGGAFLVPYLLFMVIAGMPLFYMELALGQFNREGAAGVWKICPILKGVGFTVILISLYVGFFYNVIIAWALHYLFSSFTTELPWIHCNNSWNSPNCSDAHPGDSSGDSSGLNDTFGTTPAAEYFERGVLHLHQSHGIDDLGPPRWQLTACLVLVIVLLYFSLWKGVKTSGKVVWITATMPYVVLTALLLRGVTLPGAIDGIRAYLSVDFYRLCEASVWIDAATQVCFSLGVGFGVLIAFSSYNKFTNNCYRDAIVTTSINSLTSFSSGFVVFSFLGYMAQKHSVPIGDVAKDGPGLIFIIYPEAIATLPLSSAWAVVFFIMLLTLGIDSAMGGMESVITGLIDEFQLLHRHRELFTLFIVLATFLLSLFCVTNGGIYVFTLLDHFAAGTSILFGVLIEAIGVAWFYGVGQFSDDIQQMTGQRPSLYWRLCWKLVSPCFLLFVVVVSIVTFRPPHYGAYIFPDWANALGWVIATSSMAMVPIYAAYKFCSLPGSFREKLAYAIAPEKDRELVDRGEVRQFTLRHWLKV
# 5-hydroxytryptamine receptor 1A, sequence (P08908 whole entry): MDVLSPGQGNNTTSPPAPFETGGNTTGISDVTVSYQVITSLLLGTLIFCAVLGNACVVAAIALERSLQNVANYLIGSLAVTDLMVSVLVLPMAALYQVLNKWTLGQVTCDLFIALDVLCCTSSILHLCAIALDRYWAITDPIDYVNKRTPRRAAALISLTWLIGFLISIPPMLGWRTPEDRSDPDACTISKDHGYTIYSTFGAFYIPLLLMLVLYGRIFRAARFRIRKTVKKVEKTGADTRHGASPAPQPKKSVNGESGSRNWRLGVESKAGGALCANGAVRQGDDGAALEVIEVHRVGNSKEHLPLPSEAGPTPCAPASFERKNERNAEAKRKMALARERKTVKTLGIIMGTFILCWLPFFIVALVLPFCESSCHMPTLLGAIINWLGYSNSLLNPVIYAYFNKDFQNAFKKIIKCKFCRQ
# Protein kinase C iota type (Homo sapiens), sequence (P41743 whole entry): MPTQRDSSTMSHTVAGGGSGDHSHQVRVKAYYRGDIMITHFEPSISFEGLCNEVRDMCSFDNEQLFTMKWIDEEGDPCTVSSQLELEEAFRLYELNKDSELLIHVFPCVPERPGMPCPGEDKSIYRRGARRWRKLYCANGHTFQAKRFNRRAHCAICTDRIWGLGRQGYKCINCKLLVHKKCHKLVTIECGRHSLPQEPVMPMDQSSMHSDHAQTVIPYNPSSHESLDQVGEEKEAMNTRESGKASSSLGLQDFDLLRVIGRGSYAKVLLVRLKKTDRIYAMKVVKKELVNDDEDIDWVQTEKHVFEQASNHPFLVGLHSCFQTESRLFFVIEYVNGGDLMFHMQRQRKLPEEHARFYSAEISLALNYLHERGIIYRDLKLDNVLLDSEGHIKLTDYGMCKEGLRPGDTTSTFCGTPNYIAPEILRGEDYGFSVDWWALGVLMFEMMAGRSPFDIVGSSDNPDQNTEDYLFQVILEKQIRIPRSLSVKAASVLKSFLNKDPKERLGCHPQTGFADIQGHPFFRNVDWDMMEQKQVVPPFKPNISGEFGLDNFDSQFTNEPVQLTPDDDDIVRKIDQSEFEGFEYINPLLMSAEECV
# Mitogen-activated protein kinase 14, sequence (Q16539 whole entry): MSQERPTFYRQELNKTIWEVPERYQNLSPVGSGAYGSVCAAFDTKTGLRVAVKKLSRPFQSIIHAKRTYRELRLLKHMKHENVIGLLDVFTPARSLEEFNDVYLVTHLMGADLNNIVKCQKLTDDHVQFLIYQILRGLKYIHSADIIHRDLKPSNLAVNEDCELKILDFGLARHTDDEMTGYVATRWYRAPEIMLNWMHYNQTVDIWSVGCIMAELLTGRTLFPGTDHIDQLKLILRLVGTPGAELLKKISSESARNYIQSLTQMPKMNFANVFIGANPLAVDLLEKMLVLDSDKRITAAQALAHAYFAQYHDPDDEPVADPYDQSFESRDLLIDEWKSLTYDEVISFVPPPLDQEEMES
# Neuromedin-K receptor (Homo sapiens), sequence (P29371 whole entry): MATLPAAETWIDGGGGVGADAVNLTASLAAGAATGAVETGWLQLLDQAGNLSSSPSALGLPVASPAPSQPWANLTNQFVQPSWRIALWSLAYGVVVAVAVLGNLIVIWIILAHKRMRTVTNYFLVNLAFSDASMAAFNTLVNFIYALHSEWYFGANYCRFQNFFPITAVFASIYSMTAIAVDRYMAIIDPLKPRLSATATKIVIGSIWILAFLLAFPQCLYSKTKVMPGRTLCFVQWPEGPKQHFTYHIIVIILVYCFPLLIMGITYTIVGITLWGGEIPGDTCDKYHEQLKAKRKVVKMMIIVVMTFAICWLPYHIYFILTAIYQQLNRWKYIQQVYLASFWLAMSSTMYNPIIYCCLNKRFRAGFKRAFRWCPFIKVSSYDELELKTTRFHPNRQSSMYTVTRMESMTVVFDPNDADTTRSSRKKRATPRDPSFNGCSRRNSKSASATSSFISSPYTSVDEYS
# Prostaglandin D2 receptor (Homo sapiens), sequence (Q13258 whole entry): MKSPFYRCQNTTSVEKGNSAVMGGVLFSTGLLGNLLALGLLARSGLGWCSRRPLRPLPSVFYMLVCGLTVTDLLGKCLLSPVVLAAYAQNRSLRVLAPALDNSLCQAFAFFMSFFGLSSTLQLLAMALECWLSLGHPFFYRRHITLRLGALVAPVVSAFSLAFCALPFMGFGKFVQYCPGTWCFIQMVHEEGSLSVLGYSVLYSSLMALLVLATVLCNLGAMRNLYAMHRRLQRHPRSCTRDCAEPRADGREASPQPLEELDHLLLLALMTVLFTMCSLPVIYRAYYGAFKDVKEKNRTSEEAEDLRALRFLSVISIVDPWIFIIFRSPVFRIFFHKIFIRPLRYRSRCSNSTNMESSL
# Mu-type opioid receptor (Homo sapiens), sequence (P35372 whole entry): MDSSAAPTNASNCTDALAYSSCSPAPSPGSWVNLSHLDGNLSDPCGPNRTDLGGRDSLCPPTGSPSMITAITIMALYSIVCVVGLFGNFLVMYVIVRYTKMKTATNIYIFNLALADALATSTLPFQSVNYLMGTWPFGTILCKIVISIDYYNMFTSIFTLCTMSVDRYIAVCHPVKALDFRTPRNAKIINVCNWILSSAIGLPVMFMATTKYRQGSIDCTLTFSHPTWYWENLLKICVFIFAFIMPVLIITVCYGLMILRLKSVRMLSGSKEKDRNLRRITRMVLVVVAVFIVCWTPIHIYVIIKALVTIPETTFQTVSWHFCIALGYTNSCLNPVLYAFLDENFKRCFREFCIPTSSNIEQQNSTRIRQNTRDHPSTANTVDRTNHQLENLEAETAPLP
# Interstitial collagenase (Homo sapiens), sequence (P03956 whole entry): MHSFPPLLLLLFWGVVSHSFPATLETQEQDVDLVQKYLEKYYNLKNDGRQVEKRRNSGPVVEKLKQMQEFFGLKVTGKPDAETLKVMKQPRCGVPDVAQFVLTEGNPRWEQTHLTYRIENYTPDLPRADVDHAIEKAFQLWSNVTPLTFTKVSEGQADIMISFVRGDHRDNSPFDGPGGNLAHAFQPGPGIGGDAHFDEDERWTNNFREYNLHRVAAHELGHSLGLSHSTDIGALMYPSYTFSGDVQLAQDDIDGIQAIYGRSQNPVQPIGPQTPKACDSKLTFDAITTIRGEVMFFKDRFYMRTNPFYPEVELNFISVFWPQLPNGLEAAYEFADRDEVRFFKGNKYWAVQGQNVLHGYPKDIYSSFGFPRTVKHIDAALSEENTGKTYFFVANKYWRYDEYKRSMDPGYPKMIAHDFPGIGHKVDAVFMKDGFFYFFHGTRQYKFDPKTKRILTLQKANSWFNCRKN
# 5-hydroxytryptamine receptor 4 (Homo sapiens), sequence (Q13639 whole entry): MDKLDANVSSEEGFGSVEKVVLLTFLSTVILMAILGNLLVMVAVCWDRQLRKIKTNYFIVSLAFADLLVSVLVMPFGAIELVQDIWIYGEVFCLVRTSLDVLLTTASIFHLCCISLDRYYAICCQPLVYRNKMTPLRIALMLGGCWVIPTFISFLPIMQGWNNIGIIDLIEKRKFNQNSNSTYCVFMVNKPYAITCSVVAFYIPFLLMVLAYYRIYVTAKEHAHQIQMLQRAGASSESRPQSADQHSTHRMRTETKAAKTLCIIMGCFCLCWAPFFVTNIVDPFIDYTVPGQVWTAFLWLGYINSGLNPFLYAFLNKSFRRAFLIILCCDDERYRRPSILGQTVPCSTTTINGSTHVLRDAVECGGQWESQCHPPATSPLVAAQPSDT
# 5-hydroxytryptamine receptor 6 (Homo sapiens), sequence (P50406 whole entry): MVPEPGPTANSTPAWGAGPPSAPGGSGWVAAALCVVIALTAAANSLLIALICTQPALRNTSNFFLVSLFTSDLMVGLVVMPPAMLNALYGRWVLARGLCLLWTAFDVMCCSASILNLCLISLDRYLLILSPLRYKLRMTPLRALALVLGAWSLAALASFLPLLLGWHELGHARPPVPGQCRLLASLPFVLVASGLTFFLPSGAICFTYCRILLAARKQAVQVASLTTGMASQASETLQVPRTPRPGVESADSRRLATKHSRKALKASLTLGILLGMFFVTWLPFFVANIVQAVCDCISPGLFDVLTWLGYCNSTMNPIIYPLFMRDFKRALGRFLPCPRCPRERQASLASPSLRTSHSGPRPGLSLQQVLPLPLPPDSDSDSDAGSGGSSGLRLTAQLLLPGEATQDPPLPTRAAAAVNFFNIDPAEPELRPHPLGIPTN
# Caspase-7 (Homo sapiens), sequence (P55210 24-198 limits assumed): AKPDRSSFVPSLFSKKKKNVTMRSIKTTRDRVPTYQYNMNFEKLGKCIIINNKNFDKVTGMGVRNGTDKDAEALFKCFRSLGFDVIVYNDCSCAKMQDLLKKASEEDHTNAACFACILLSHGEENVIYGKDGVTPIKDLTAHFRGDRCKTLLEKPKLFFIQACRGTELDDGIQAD
# Caspase-7 (Homo sapiens), sequence (P55210 207-303 limits assumed): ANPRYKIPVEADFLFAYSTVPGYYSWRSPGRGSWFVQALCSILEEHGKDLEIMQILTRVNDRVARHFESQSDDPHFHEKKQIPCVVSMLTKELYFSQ
smiles,measurement,setting,value
O=C(O)c1cc(-c2ccc(C3CCNCC3)cc2)c2ccc(-c3ccc(C(F)(F)F)cc3)cc2c1 [PPTN],inhibition,[1],-10%
same,inhibition,[2],39%
same,inhibition,[3],11%
same,inhibition,Caspase-7 (Homo sapiens),-6%
same,inhibition,[4],7%
same,inhibition,Rattus norvegicus,-4%
same,inhibition,[5]; Compound concentration 0.1 uM,-8%
same,inhibition,[5]; Compound concentration 1.0 uM,-5%
same,inhibition,[5]; Compound concentration 10.0 uM,51%
same,inhibition,[5]; [23],70%
same,IC50,Phosphodiesterase PDE1,17.6 µM
same,inhibition,[6],-1%
same,IC50,[7],> 20 µM (not active)
same,IC50,[8],2.31 µM
same,Ki,[8],1.83 µM
same,residual activity,[9],82%
same,IC50,[10],7.01 µM
same,Ki,[10],4 µM
same,inhibition,Homo sapiens [11],0%
same,inhibition,[12],12%
same,inhibition,[13],-1%
same,inhibition,[14],37%
same,inhibition,[15],29%
same,inhibition,Homo sapiens [16]; Compound concentration 0.01 uM,3%
same,inhibition,Homo sapiens [16]; Compound concentration 0.1 uM,-1%
same,inhibition,Homo sapiens [16]; Compound concentration 1.0 uM,0%
same,inhibition,Homo sapiens [16]; Compound concentration 10.0 uM,48%
same,IC50,[17],10 µM
same,inhibition,Homo sapiens [18]; Compound concentration 0.1 uM,-6%
same,inhibition,Homo sapiens [18]; Compound concentration 1.0 uM,0%
same,inhibition,Homo sapiens [18]; Compound concentration 10.0 uM,24%
same,inhibition,Homo sapiens [18]; [23],49%
same,IC50,[19],100 µM
same,inhibition,Homo sapiens [20]; Compound concentration 0.01 uM,-3%
same,inhibition,Homo sapiens [20]; Compound concentration 0.1 uM,-3%
same,inhibition,Homo sapiens [20]; Compound concentration 1.0 uM,-8%
same,inhibition,Homo sapiens [20]; Compound concentration 10.0 uM,67%
same,inhibition,[21],-1%
same,inhibition,Bos taurus; Compound concentration 0.1 uM,-10%
same,inhibition,Bos taurus; Compound concentration 1.0 uM,9%
same,inhibition,Bos taurus; Compound concentration 10.0 uM,46%
same,inhibition,Bos taurus; [23],91%
same,IC50,[22],11.4 µM

# Reference: ChEMBL document CHEMBL4507292 (2021)
